Data from the supplement of paper PMC13380429.

Tests used:
Conditions in all cases: 72 h
Caco-2 [1] = test: cell viability relative to DMSO; higher = less toxic
Calu-3 [2] = test: as above
HepG2 [3] = test: as above
U2OS [4] = test: as above
Vero E6 [5] = test: as above
Caco-2 [6] = test: relative viability EC50 (midpoint between 100% and the lowest measured viability); higher = less toxic
Calu-3 [7] = test: as above
HepG2 [8] = test: as above
U2OS [9] = test: as above
Vero E6 [10] = test: as above
Caco-2 [11] = test: drug sensitivity score (DSS) for viability; higher = more toxic; extreme values may be limits of the assay
Calu-3 [12] = test: as above
HepG2 [13] = test: as above
U2OS [14] = test: as above
Vero E6 [15] = test: as above

Structure (SMILES)	cell viability (Caco-2 [1]; 1 nM) [%]	cell viability (Caco-2 [1]; 10 nM) [%]	cell viability (Caco-2 [1]; 100 nM) [%]	cell viability (Caco-2 [1]; 1000 nM) [%]	cell viability (Caco-2 [1]; 10000 nM) [%]	cell viability (Calu-3 [2]; 1 nM) [%]	cell viability (Calu-3 [2]; 10 nM) [%]	cell viability (Calu-3 [2]; 100 nM) [%]	cell viability (Calu-3 [2]; 1000 nM) [%]	cell viability (Calu-3 [2]; 10000 nM) [%]	cell viability (HepG2 [3]; 1 nM) [%]	cell viability (HepG2 [3]; 10 nM) [%]	cell viability (HepG2 [3]; 100 nM) [%]	cell viability (HepG2 [3]; 1000 nM) [%]	cell viability (HepG2 [3]; 10000 nM) [%]	cell viability (U2OS [4]; 1 nM) [%]	cell viability (U2OS [4]; 10 nM) [%]	cell viability (U2OS [4]; 100 nM) [%]	cell viability (U2OS [4]; 1000 nM) [%]	cell viability (U2OS [4]; 10000 nM) [%]	cell viability (Vero E6 [5]; 1 nM) [%]	cell viability (Vero E6 [5]; 10 nM) [%]	cell viability (Vero E6 [5]; 100 nM) [%]	cell viability (Vero E6 [5]; 1000 nM) [%]	cell viability (Vero E6 [5]; 10000 nM) [%]	relative viability EC50 (Caco-2 [6]) [µM]	relative viability EC50 (Calu-3 [7]) [µM]	relative viability EC50 (HepG2 [8]) [µM]	relative viability EC50 (U2OS [9]) [µM]	relative viability EC50 (Vero E6 [10]) [µM]	drug sensitivity score (Caco-2 [11])	drug sensitivity score (Calu-3 [12])	drug sensitivity score (HepG2 [13])	drug sensitivity score (U2OS [14])	drug sensitivity score (Vero E6 [15])
COc1cc2c(Nc3ccc(Cl)c(Cl)c3F)ncnc2cc1OC[C@@H]1C[C@@H]2CN(C)C[C@@H]2C1 [XL647]	92.1	92.6	95	72.1	14.9	98.8	93.2	82.4	31	0.7	102	89.7	99.7	92.9	6.7	95.9	95.9	93.7	84.2	-0.3	96.8	100	85.1	39.2	-0.4	1.39	0.431	2.55	1.94	0.612	8.4	15.3	6.3	8.2	13.6
Cc1c(O)c(=O)n(-c2ccccc2)n1C [4-hydroxy-phenazone]	98.7	98.7	90.2	92.3	90.6	107	105	101	96.8	102	102	103	110	96.6	115	–	–	–	–	–	98	98.3	103	103	92.9	> 10	> 10	> 10	–	> 10	0	0	0	–	0
O=C(O[C@H]1[C@H](OC(=O)c2cccnc2)[C@@H](OC(=O)c2cccnc2)[C@H](OC(=O)c2cccnc2)[C@@H](OC(=O)c2cccnc2)[C@H]1OC(=O)c1cccnc1)c1cccnc1 [inositol-hexanicotinate]	92.2	88.9	103	89.3	91.2	102	93.3	100	103	110	90.9	112	89.1	96.5	94.6	92.4	90.5	99	98.5	99.4	105	102	90.9	93.7	113	> 10	> 10	> 10	> 10	> 10	0	0	0	0	0
CCCCCCCCCCCCCCCC[n+]1ccccc1 [cetylpyridinium]	103	99	101	66.4	16.5	104	99.9	105	84.3	44.1	106	95.4	89.2	58.2	14.6	103	102	104	80.9	10.1	96.2	97.5	98.1	91.6	19.2	1.17	1.46	0.929	1.68	2.3	9.1	5.4	9.8	8	5.9
COc1cc2c(=O)c(-c3ccc(O)cc3)coc2cc1O [glycitein]	86.4	97.3	101	96	94.2	92.9	99.6	101	101	96.7	105	103	99.2	111	92.9	98.1	99.3	102	98.2	99.5	102	103	98.2	99.6	94.4	> 10	> 10	> 10	> 10	> 10	0	0	0	0	0
Cc1ccc(Oc2ccccc2-c2csc(N=C3NCCCN3)n2)c(C)c1 [abafungin]	104	105	100	87.5	78.3	90.4	99	104	99.3	112	105	104	104	87.8	75.8	91.6	95.2	93.6	96.7	91.2	106	99.8	105	99.4	97.7	> 10	> 10	> 10	> 10	> 10	2	0	2.3	0	0
CC#C[C@@H](CC(=O)O)c1ccc(OCc2cccc(-c3ccc(C(F)(F)F)cc3)c2)cc1 [AMG-837]	102	95.3	97.7	94.9	93.2	104	104	110	92.7	94.9	–	–	–	–	–	101	94.7	99.9	95	93.9	97.5	100	95.8	102	97.4	> 10	> 10	–	> 10	> 10	0	0	–	0	0
